Data from patent publication US20110105623A1 (Biogenic Innovations, LLC, priority 2009, published 2011).
Like-named read-outs stand apart in the source and are kept apart here.

What was measured:
[1] = test system: normal flora found in the product; details: for Log Growth: rows 0.5-10% MSM
Bifidobacterium bifidum = assay: Growth in MRS broth fortified with MSM (anaerobic); type: cell-based; details: for log higher than the 0% MSM control: 48 hours
Experimental: Each organism (Lactobacillus rhamnosus, Lactobacillus acidophilus, and Bifidobacterium bifidum) was grown in MRS bacterial growth medium (broth) and plated on MRS agar at different time intervals. Results are expressed in colony forming units per milliliter (cfu/mL).
The 0.1% and 0.04% test concentrations were prepared by making a 1:10 dilution of the 1% and 0.4% test solutions. Once each set of test media was plated for sterility, they were inoculated at a level of 100 μl of inoculum per 100 g or mLs of test broth (1:1000 inoculum dilutions) with each respective microorganism. All bacterial organisms were incubated at 35° C.+/−2° C. for the duration of the study.
All samples were plated on MRS agar at time 0, 12, 36, 48, 60 and 72 hours (+/−45 minutes). All preparations and plating were conducted at room temperature. All plating events were incubated at 35° C.+/−2° C. for at least 2 days or 3 days for Bifidobacterium. Test samples were plated in triplicate at each test date and the averages are reported.
Bifidobacterium bifidum, a common microbe used in probiotics, was also tested. All Bifidobacterium samples were incubated under anaerobic conditions.

Pseudomonas aeruginosa = assay: USP <51> AET in cosmetic cream/composition; type: cell-based; details: for AET microorganism count: 48 hrs-28 days; for Log Reduction from Initial Microorganism Inoculum: 14, 28 Days
[2] = test system: Streptococcus Pneumonia (#10341); assay: Bacterial viability by bioluminescent ATP assay
[3] = test system: Lactobacillus acidophilus ATCC #4356; assay: Growth and recovery in simulated intestinal tract environment
Experimental: The pH of the simulated intestinal fluid was 6.8. The microorganisms analyzed included Lactobacillus acidophilus ATCC #4356:
For the Lactobacillus acidophilus, bottled milk was used as the product. One milliliter of a 9 log solution of organism was placed into a 99 mL of bottled milk and mixed by hand shaking. […] The gastric acid was pre-warmed to 35° C. and kept at 35° C. for the duration of the 20 minutes. At the end of the 20 minute period, 10 mL of the simulated gastric acid, Lactobacillus acidophilus and milk mixture was placed into 90 mL of simulated intestinal fluid. The simulated intestinal fluid was pre-warmed to 35° C. and kept at 35° C. during the duration of the study.

Candida albicans = assay: USP AET, MSM in TSB; type: cell-based; set-up: key to AET microorganism count: Colonies too numerous to count (TNTC); details: for Log Reduction from Initial Microorganism Inoculum: 1:10 dilution of MSM, 14, 28 Days; for AET microorganism count: 48 hrs
Excerpt: (§1) Compounds or formulated products having antimicrobial activity may be evaluated with the United States Pharmacopeia (USP) Antimicrobial Effectiveness Test (AET). The AET involves the addition of specified microorganisms (Candida albicans, Aspergillus niger, Escherichia coli, Pseudomonas aeruginosa and Staphylococcus aureus) directly to a test product at relatively high concentrations to simulate contamination. The product is held for one month, with weekly analysis of microorganism levels. Depending on the route of administration of a product, satisfaction of the AET generally requires a 1 to 3 log reduction in bacteria from initial levels, which should occur in one to two weeks, with no further increase in bacteria after two weeks. For yeast and mold, no increase from the initial inoculums level is permitted.
(§2) Inoculations were made using Candida albicans, Aspergillus niger, Escherichia coli, Pseudomonas aeruginosa and Staphylococcus aureus. Tryptic soy broth (TSB) was used as the culturing media. […] The inoculated media was held for one month, during which time the added microorganisms were enumerated weekly to determine if they were growing, dying off, or remaining near the initial inoculation level. Data points were measured in triplicate at 48 hours, 3, 5, 14, 20, 28, and 30 days. The acceptance criteria for antimicrobial effectiveness are described in detail in the USP, herein incorporated by reference.

Staphylococcus aureus = assay: USP AET, MSM in TSB; type: cell-based; set-up: key to AET microorganism count: Colonies too numerous to count (TNTC); details: for Log Reduction from Initial Microorganism Inoculum: 1:10 dilution of MSM, 14, 28 Days; for AET microorganism count: 48 hrs
Excerpt: as §1, §2

Methylsulfonylmethane [MSM]
Log Growth of 40% Milk Fat ([1]; 0.5% MSM, day 0): 0.00 logs
Log Growth of 40% Milk Fat ([1]; 0.5% MSM, day 7): 0.35 logs
Log Growth of 40% Milk Fat ([1]; 0.5% MSM, day 14): 2.32 logs
Log Growth of 40% Milk Fat ([1]; 0.5% MSM, day 21): 4.46 logs
Log Growth of 40% Milk Fat ([1]; 0.5% MSM, day 24): 4.02 logs
Log Growth of 40% Milk Fat ([1]; 0.5% MSM, day 28): 1.95 logs
Log Growth of 40% Milk Fat ([1]; 1.0% MSM, day 7): 0.00 logs
Log Growth of 40% Milk Fat ([1]; 1.0% MSM, day 14): 2.37 logs
Log Growth of 40% Milk Fat ([1]; 1.0% MSM, day 21): 4.35 logs
Log Growth of 40% Milk Fat ([1]; 1.0% MSM, day 24): 3.33 logs
Log Growth of 40% Milk Fat ([1]; 1.0% MSM, day 28): 3.86 logs
Log Growth ([1]; 2% Milk Fat, day 7): 1.59 log
Log Growth of 40% Milk Fat ([1]; 5.0% MSM, day 0): 0.00 logs
Log Growth of 40% Milk Fat ([1]; 5.0% MSM, day 7): 0.80 logs
Log Growth of 40% Milk Fat ([1]; 5.0% MSM, day 14): 0.50 logs
Log Growth of 40% Milk Fat ([1]; 5.0% MSM, day 21): 1.25 logs
Log Growth of 40% Milk Fat ([1]; 5.0% MSM, day 24): 1.03 logs
Log Growth of 40% Milk Fat ([1]; 5.0% MSM, day 28): 0.35 logs
Log Growth of 40% Milk Fat ([1]; 10.0% MSM, day 0): 0.00 logs
Log Growth of 40% Milk Fat ([1]; 10.0% MSM, day 7): 0.00 logs
Log Growth of 40% Milk Fat ([1]; 10.0% MSM, day 14): 1.95 logs
Log Growth of 40% Milk Fat ([1]; 10.0% MSM, day 21): 4.45 logs
Log Growth of 40% Milk Fat ([1]; 10.0% MSM, day 24): 0.85 logs
Log Growth of 40% Milk Fat ([1]; 10.0% MSM, day 28): 0.35 logs
lower than the control by ([1]; 40% milk product, Day 21, 5.0% MSM): 3.22 logs
microbial load ([1]; 40% milk product, Day 21, […] MSM): 2.16 logs
microbial count ([1]; 40% milk product, Day 28, 5.0% and 10.0% MSM): 0.35 logs
Log Growth ([1]; Nonfat Milk, day 7): 1.00 log
Log Growth of 40% Milk Fat ([1]; […] MSM, day 0): 0.00 logs
Log Growth of 40% Milk Fat ([1]; […] MSM, day 7): 0.00 logs
Log Growth of 40% Milk Fat ([1]; […] MSM, day 14): 0.00 logs
Log Growth of 40% Milk Fat ([1]; […] MSM, day 21): 2.16 logs
Log Growth of 40% Milk Fat ([1]; […] MSM, day 24): 3.79 logs
Log Growth of 40% Milk Fat ([1]; […] MSM, day 28): 0.95 logs
log increases of Bifidobacterium (Bifidobacterium bifidum; 0.2% MSM): 2 log
log higher than the 0% MSM control (Bifidobacterium bifidum; 0.04% MSM): 1 log
log higher than the 0% MSM control (Bifidobacterium bifidum; 0.2% MSM): 1 log
AET microorganism count (Pseudomonas aeruginosa; 10% MSM in Preservative Free Cosmetic Composition #1, 48 hours after inoculation): 7.3 × 10^3
AET microorganism count (Pseudomonas aeruginosa; 10% MSM in Preservative Free Cosmetic Composition #1, 7 days after inoculation): <10
AET microorganism count (Pseudomonas aeruginosa; 10% MSM in cosmetic cream without preservative): <10
Log Reduction from Initial Microorganism Inoculum (Pseudomonas aeruginosa; 10% MSM in preservative-free jojoba cream): 5.3 log
Log Reduction from Initial Microorganism Inoculum (Pseudomonas aeruginosa; 10% MSM, Composition #1): 5.8 log
Log Reduction from Initial Microorganism Inoculum (Pseudomonas aeruginosa; 10% MSM, Composition #2): 5.8 log
IC50 [2]: 15.97%
reduced viability by ([2]; 5% MSM alone): approximately 5%
Log Growth of Lactobacillus acidophilus ([3]; 5.0% MSM, 20 min Gastric): <1.00 logs
Log Growth of Lactobacillus acidophilus ([3]; 5.0% MSM, Hour 3, simulated intestinal fluid): 1.62 logs
Log Growth of Lactobacillus acidophilus ([3]; 5.0% MSM, Hour 8, simulated intestinal fluid): 2.33 logs
Log Growth of Lactobacillus acidophilus ([3]; 5.0% MSM, Hour 24, simulated intestinal fluid): 6.39 logs
Log Growth of Lactobacillus acidophilus ([3]; 5.0% MSM, Hour 30, simulated intestinal fluid): 6.63 logs
Log Growth of Lactobacillus acidophilus ([3]; 5.0% MSM, Hour 36, simulated intestinal fluid): 8.65 logs
Log Growth of Lactobacillus acidophilus ([3]; 5.0% MSM, Hour 48, simulated intestinal fluid): 10.17 logs
Log Growth of Lactobacillus acidophilus ([3]; 5.0% MSM, Hour 54, simulated intestinal fluid): 13.33 logs
Log Growth of Lactobacillus acidophilus ([3]; 5.0% MSM, Hour 60, simulated intestinal fluid): 12.76 logs
Log Growth of Lactobacillus acidophilus ([3]; 5.0% MSM, Hour 72, simulated intestinal fluid): 12.78 logs
Log Growth of Lactobacillus acidophilus ([3]; 5.0% MSM, Starting Inoculum): 7.02 logs
log growth ([3]; 5.0% MSM, hour 36): 8.65 logs
increase in growth ([3]; 5.0% MSM, period after hour 48): 3.16 logs
Log Growth of Lactobacillus acidophilus ([3]; […] MSM, 20 min Gastric): <1.00 logs
Log Growth of Lactobacillus acidophilus ([3]; […] MSM, Starting Inoculum): 6.86 logs
increase in growth ([3]; […] MSM, hour 36 to 48): 3.65 logs
Log Reduction from Initial Microorganism Inoculum (Candida albicans; 14 days after inoculation): 4.2 log
Log Reduction from Initial Microorganism Inoculum (Candida albicans; 28 days after inoculation): 4.4 log
AET microorganism count (Candida albicans; 1:100 dilution of MSM): TNTC
AET microorganism count (Candida albicans; 1:1000 dilution of MSM): TNTC
Log Reduction from Initial Microorganism Inoculum (Staphylococcus aureus; 14 days after inoculation): 4.5 log
Log Reduction from Initial Microorganism Inoculum (Staphylococcus aureus; 28 days after inoculation): 4.7 log
AET microorganism count (Staphylococcus aureus; 1:100 dilution of MSM): TNTC
AET microorganism count (Staphylococcus aureus; 1:1000 dilution of MSM): TNTC
